Reference: patent US20130109712A1, “Statins for the Prevention or Treatment of Drug Addictions” (Universite de Poitiers, priority 2010, published 2013)

Key:
cocaine-seeking behavior = assay: Cocaine-seeking test (extinction session) after cocaine self-administration and 20-day abstinence; type: in vivo, Sprague-Dawley rats; conditions: rats, simvastatin 1 mg/kg i.p. daily for 20 days of abstinence, 3 h extinction test
[1] = system: nicotine-seeking behavior; assay: Nicotine-seeking test (extinction session) after nicotine self-administration and 20-day abstinence; type: in vivo, Sprague-Dawley rats; conditions: rats, simvastatin 1 mg/kg i.p. daily for 20 days of abstinence; 1 h extinction test; control approx. 100 active nose pokes
Method: Thus, the logic of the experiment is the following: • 1) the rats acquire self-administration under similar conditions; • 2) during withdrawal from self-administration, they are separated and receive, once a day for 20 days, an injection of simvastatin (1 mg/kg i.p) or a control solution; • 3) they are tested in a drug-seeking protocol in which their responses are not reinforced by the drug. Adult male (11-12 weeks old) Sprague-Dawley rats (Janvier, France), experimentally naive at the beginning of the study, are placed in the animal house with controlled temperature and degree of humidity, and are kept in a 12-hour light/dark cycle (light active at 7 am). As soon as they arrive, the rats are placed in cages in groups of 3 for one week, before beginning the surgery, consisting of the implantation of a catheter in the jugular vein. After the surgery and during the rest of the experiment, the rats are placed in cages individually. All the experiments are carried out during the “day” phase, in accordance with EC regulations for the use of animals in research (86/609/EEC). For the nicotine, 24 self-administration sessions are carried out using a fixed ratio 1 or 3 (FR1 or FR3) schedule of reinforcement, i.e., during the sessions, respectively one or three nose pokes in the active hole deliver an i.v. injection of nicotine. […]

## CCC(C)(C)C(=O)O[C@H]1C[C@@H](C)C=C2C=C[C@H](C)[C@H](CC[C@@H]3C[C@@H](O)CC(=O)O3)[C@H]21 [simvastatin]
cocaine-seeking behavior
  reduction in cocaine-seeking behavior vs control: 45%
cocaine-seeking behavior; control approx. 350
  number of active nose pokes (drug-seeking behavior): approximately 190 active nose pokes
[1]
  reduction in nicotine-seeking behavior vs control: approximately 50%
